The values below are quoted from earlier work in patent US5478816A, “Liquid vitamin formulations containing vitamin D esters” (Bristol-Myers Squibb Company, priority 1993, dated 1995).

Like-named read-outs stand apart in the source and are kept apart here.

For this data set the following is noted: cited from earlier work.

Consider `C=C1CC[C@H](O)C/C1=C/C=C1\CCC[C@]2(C)[C@@H]([C@H](C)/C=C/[C@H](C)C(C)C)CC[C@@H]12` [Vitamin D2], for which the stability entry is, setting by setting: (in corn oil, propylene glycol, and milk) “stable”; (in propylene glycol when diluted in water) “deteriorate”.

As for vitamin D, the stability entry is given as “stable” (at a mid-pH); “slowly destroyed” (in an alkaline medium or in the presence of light and air); “unstable” (in an aqueous environment); “unstable” (in the presence of minerals).
